“And” between values parts separate entries of the source, which are not always exact repeats. Equal entries are not always repeated. “Also recorded” adds a separate entry of the source.
What was measured:
[1] = enzymes that metabolize the drug; cited from earlier work
[2] = reported peak concentration in a patient population associated with standard dosing; cited from earlier work
[3] = tested on: pooled human liver microsomes; experiment: In vitro metabolism of ivermectin in pooled human liver microsomes, alone and co-incubated with an antimalarial (CYP-mediated DDI)
Experimental: Pooled human liver microsomes (containing 20 mg/mL protein) were thawed on ice, and the reactions were conducted in a 96-well plate (1 mL, Agilent Technologies, Santa Clara, CA, USA). The assay buffer consisted of 0.1 M potassium phosphate buffer (pH 7.4). The premix solutions for each condition were prepared with specific volumes of each component, as outlined in Table S1. The premix solution was prepared by combining ivermectin, antimalarial drug, microsomes, and buffer. Three replicates of each premix solution were prepared, and 475 µL of each premix was transferred into separate wells of the 96-well plate. The plate was incubated at 37 °C for 5 min with gentle shaking (300 rpm). Following incubation, 25 µL of 20 mM NADPH was added to each well, and the solution was mixed thoroughly. The final incubation mixture (500 µL) contained a total microsome concentration of 0.53 mg/mL. To monitor the metabolism of ivermectin, 50 µL from each well was collected at 0, 15, 30, 45, 60, 90, 120, and 150 min and transferred to a new plate containing 200 µL of cold acetonitrile and 100 ng/mL of ivermectin-D2 (internal standard). The collection plate was kept on ice during sampling. After sample collection, the plate was sealed and centrifuged at 1,100 × g for 15 min at 4 °C. A 100 µL aliquot of the clear supernatant was transferred to a new plate for immediate LC–MS analysis.
The LC system consisted of an Agilent 1260 quaternary pump, an Agilent 1260 autosampler (set at 6 °C), and an Agilent 1290 column compartment (set at 40 °C). Five µL of sample was analysed on an Acquity UPLC HSS T3 reversed-phase column (2.1 × 100 mm, 1.8 μm) with a precolumn (2.1 × 5 mm, 1.8 μm) under a linear gradient. The mobile phase consisted of water with 10 mM ammonium acetate and 0.1% formic acid (A) and acetonitrile:water (95:5, v/v) with 10 mM ammonium acetate and 0.1% formic acid (B), at a flow rate of 0.3 mL/min. The gradient started at 75% B, ramped to 90% B over 2 min, held at 90% B for 4 min, and returned to 75% B in 0.1 min, with a 3.9-min re-equilibration. A Sciex TripleTOF 5600 + Q-TOF MS with DuoSpray ESI was used for LC–MS analysis in the positive mode, with source conditions set at 40 psi for ion source gas 1 (GS1) and gas 2 (GS2), 30 psi for curtain gas (CUR), 4,500 V for ion spray voltage floating (ISVF), 350 °C source temperature (TEM), and 120 V declustering potential (DP). Data were acquired from m/z 100–1,000 in TOF–MS scan mode using Analyst TF Software 1.8, and ivermectin quantification (ivermectin peak area/internal standard peak area) was performed with MultiQuant Software (Sciex, Framingham, MA, USA) with a high resolution TOF–MS scan mode.
The metabolism rate of ivermectin was evaluated based on the normalized peak area (%) of ivermectin over a total of 150 min of incubation. […] This normalized value was further adjusted relative to the pre-incubation ivermectin peak area (zero-minute sample) within a sample collection series, resulting in final ivermectin concentrations expressed as relative peak areas. All individual ivermectin concentrations (relative peak area) from triplicate incubations were fitted to an ordinary linear regression, separately conducted for ivermectin alone and ivermectin co-incubated with an antimalarial. The estimated (±95% CI) slope and intercept of the regression analysis was derived using GraphPad Prism v.10.4.2. Additionally, the slopes of the regression analyses were compared statistically between ivermectin alone and when co-incubation with an antimalarial, as an automated output from the regression analysis. Furthermore, the relative difference (%) in in vitro metabolism rate (i.e. difference between regression slopes) for ivermectin alone and when co-incubated with an antimalarial was calculated as shown in Eq. 1.

[4] = Rhesus macaques; cited from earlier work

Row | SMILES | Metabolism pathway [1] | Reported Cmax (ng/ml) [2] | other results
1 | Clc1ccc2c(N3CCN(CCCN4CCN(c5ccnc6cc(Cl)ccc56)CC4)CC3)ccnc2c1 [Piperaquine] | Major CYP3A4; Minor CYP2C8 [14] | 568 [11] ng/ml | –
2 | CCN(CC)Cc1cc(Nc2ccnc3cc(Cl)ccc23)ccc1O [Amodiaquine] | Major CYP2C8; Minor CYP1A1, CYP1B1 [23, 28] | – | –
3 | COc1cc(NC(C)CCCN)c2ncccc2c1 (centres unmarked) [Primaquine] | Major CYP2D6; Minor CYP1A2 [23, 30] | 167 [11] ng/ml | –
4 | C[C@H]1[C@@H](O)O[C@@H]2O[C@@]3(C)CC[C@H]4[C@H](C)CC[C@@H]1[C@@]24OO3 [Dihydroartemisinin] | Glucuronidation by UGT1A9 and UGT2B7 [29] | 421 [3] ng/ml | –
5 | O=C1C(O)=C([C@H]2CC[C@H](c3ccc(Cl)cc3)CC2)C(=O)c2ccccc21 [Atovaquone] | Major CYP3A4; Minor CYP2C9 [21, 22] | 13,300 [11] ng/ml | –
6 | [H]/N=C(\N/C(=N/[H])Nc1ccc(Cl)cc1)NC(C)C [Proguanil] | CYP2C19 [18] | 750 [11] ng/ml | –
7 | COc1ncnc(NS(=O)(=O)c2ccc(N)cc2)c1OC [Sulfadoxine] | Acetylation by N-Acetyltransferase 2 [25] | 130,000 [11] ng/ml | –
8 | CC[C@H](C)[C@H]1O[C@]2(CC[C@@H]1C)C[C@@H]1C[C@@H](C/C=C(\C)[C@@H](O[C@H]3C[C@H](OC)[C@@H](O[C@H]4C[C@H](OC)[C@@H](O)[C@H](C)O4)[C@H](C)O3)[C@@H](C)/C=C/C=C3\CO[C@@H]4[C@H](O)C(C)=C[C@@H](C(=O)O1)[C@]34O)O2 [Ivermectin] | primarily metabolized by CYP3A4 and to a lesser extent CYP3A5 and CYP2C8; also recorded: Major CYP3A4; Minor CYP3A5, CYP2C8 [31, 32] | 119 [3] ng/ml | Intercept (95%CI) of linear regression of ivermectin relative peak area (%), ivermectin alone ([3]; ivermectin 1 µM alone, control run paired with the antimalarial of the same table line): 97.6 (95.4-99.9) and 96.1 (94.1-98.1) and 98.0 (96.7-99.2) and 97.7 (96.2-99.2) and 98.0 (96.6-99.4) and 100.1 (98.5-101.7) and 97.8 (95.9-99.8)
9 | CCN(CC)CCCC(C)Nc1ccnc2cc(Cl)ccc12 (centres unmarked) [Chloroquine] | – | 1430 [11] ng/ml | Exposure to ivermectin on co-administration [4]: increased exposure to ivermectin; DDI effect on the in vitro metabolism rate of ivermectin (class in words) [3]: substantial
10 | COc1ccc2nc3cc(Cl)ccc3c(Nc3cc(CN4CCCC4)c(O)c(CN4CCCC4)c3)c2n1 [Pyronaridine] | CYP1A2, CYP2D6, CYP3A4 [24] | 571 [12] ng/ml | –
11 | CCCCN(CCCC)CC(O)c1cc(Cl)cc2c1-c1ccc(Cl)cc1/C2=C/c1ccc(Cl)cc1 (centres unmarked) [Lumefantrine] | CYP3A4 [19, 20] | 25,700 [11] ng/ml | –
12 | C[C@H]1[C@H](OC(=O)CCC(=O)O)O[C@@H]2O[C@@]3(C)CC[C@H]4[C@H](C)CC[C@@H]1[C@@]24OO3 [Artesunate] | – | 244 [11] ng/ml | –
13 | CO[C@H]1O[C@@H]2O[C@@]3(C)CC[C@H]4[C@H](C)CC[C@@H]([C@H]1C)[C@@]24OO3 [Artemether] | Major CYP2B6; Minor CYP3A4 [19, 20, 26] | 186 [11] ng/ml | –
14 | COc1cc(C)c2c(Oc3cccc(C(F)(F)F)c3)c(OC)cc(NC(C)CCCN)c2n1 (centres unmarked) [Tafenoquine] | CYP2D6 [27] | 300 [13] ng/ml | –
15 | OC(c1cc(C(F)(F)F)nc2c(C(F)(F)F)cccc12)C1CCCCN1 (centres unmarked) [Mefloquine] | – | 2700 [11] ng/ml | DDI effect on the in vitro metabolism rate of ivermectin (class in words) [3]: substantial
16 | CCc1nc(N)nc(N)c1-c1ccc(Cl)cc1 [Pyrimethamine] | CYP1B1, CYP2C9 [23] | 280 [11] ng/ml | DDI effect on the in vitro metabolism rate of ivermectin (class in words) [3]: little impact; Intercept (95%CI) of linear regression of ivermectin relative peak area (%), combination ([3]; human, pH 7.4): 96.7 (95.0-98.3); Slope (95%CI) of linear regression of ivermectin relative peak area (%) over time, combination ([3]; human, pH 7.4): -0.21 (-0.24 to -0.19)
